For data set [1] the following is noted: orally administrated, women; cited from earlier work.
Data set [2] is described as follows: Particle size distribution of SHR0302 by laser diffraction (Malvern). The class given is physicochemical. The settings on record: SHR0302 used in Example 1, FIG. 1. An excerpt:
In the pharmaceutical compositions of the present invention, the active ingredient is present as small particles. Particle size of the drug can be assessed using laser diffraction methods. Laser diffraction is recognized by standards and guidance agencies including ISO and ASTM and is widely used to determine particle size distributions. In conducting the assessment, the sample is passed through a laser beam, which results in laser light scattered at a range of angles. Detectors placed at fixed angles measure the intensity of light scattered at that position. A mathematical model is then applied to generate a particle size distribution. The particle size values reported herein are determined by using a liquid or wet dispersion method.
In particle size determinations, the median value is defined as the value where half of the population resides above this point, and half resides below this point. For particle size distributions the median is called the D50. The D50 is the size that splits the distribution with half above and half below this diameter. The distribution width may also be characterized by citing one, two or three values on the x-axis, typically some combination of the D10, D50, and D90. The D50, the median, has been defined above as the diameter where half of the population lies below this value. Similarly, 90 percent of the distribution lies below the D90, and 10 percent of the population lies below the D10.
A pharmaceutical composition comprising 3% SHR0302 suspended in dimethicone was prepared. The primary particle size distribution of the SHR0302 is characterized by a D10 value of less than about 0.25 μm; a D50 value of less than about 0.7 μm; and a D90 value of less than about 5 μm. The pharmaceutical composition was a transparent solution due to the particles being too small to scatter visible light. A Malvern Metasizer Model 3000 using the Hydro MV dispersion unit was used to determine the particle size distribution profile of SHR0302. […]

In the next data set the target is JAK1 (Homo sapiens, UniProt P23458). The settings on record: cited from earlier work.
Sequence of JAK1 (P23458 whole entry): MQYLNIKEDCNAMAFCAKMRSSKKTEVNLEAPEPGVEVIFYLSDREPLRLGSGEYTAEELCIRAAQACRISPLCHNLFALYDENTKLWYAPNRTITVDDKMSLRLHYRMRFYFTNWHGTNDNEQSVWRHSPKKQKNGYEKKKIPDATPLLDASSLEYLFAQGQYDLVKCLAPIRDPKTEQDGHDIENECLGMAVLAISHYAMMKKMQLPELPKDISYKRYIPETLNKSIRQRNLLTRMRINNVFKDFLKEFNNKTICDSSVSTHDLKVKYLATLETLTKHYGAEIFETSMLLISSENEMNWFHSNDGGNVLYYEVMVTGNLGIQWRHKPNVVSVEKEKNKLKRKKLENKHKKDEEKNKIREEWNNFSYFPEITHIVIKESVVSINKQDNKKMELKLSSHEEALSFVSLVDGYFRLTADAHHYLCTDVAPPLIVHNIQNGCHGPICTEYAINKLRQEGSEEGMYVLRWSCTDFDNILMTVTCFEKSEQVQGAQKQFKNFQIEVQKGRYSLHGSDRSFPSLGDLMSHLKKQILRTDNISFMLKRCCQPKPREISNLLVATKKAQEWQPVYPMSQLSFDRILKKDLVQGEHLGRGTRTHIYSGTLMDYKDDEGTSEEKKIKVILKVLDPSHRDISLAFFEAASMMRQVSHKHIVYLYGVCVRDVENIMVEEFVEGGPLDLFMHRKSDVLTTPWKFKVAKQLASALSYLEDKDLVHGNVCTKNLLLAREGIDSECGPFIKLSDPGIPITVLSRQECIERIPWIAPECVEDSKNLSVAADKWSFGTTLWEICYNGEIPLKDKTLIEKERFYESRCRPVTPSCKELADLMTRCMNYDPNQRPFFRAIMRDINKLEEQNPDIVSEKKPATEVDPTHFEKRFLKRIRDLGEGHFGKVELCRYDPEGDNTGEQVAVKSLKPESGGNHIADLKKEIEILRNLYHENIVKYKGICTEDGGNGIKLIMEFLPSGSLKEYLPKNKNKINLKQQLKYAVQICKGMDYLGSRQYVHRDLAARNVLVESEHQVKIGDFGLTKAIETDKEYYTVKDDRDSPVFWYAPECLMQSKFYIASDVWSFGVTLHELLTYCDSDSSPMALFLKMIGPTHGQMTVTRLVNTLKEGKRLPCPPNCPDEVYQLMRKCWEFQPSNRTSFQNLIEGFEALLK

Take `CC(=O)S[C@@H]1CC2=CC(=O)CC[C@]2(C)[C@H]2CC[C@@]3(C)[C@@H](CC[C@@]34CCC(=O)O4)[C@H]12` [spironolactone, 17-hydroxy-7α-mercapto-3-oxo-17α-pregn-4-ene-21-carboxylic acid γ-lactone acetate]: in data set [1], the “efficacy in treatment of acne” value is on record as “efficacious”.

As for `COc1nsc(NC(=O)N2C[C@H]3C[C@H](N(C)c4ncnc5[nH]ccc45)C[C@H]3C2)n1` [SHR0302, (3aR,5S,6aS)-N-(3-methoxyl-1,2,4-thiadiazol-5-yl)-5-(methyl(7H-pyrrolo[2,3-d]pyrimidin-4-yl)amino)hexahydrocyclopenta[c]pyrrole-2(1H)-carboxamide], in data set [2], the “primary particle size D10” value is given as “less than 0.25 μm”, the “primary particle size D50” value is given as “less than 0.7 μm” and the “primary particle size D90” value is reported as “less than 5 μm”. For the same compound, at JAK1, the “inhibition of JAK1” value is listed as “potent”.

The values above are taken from patent publication US20230414511A1, “COMPOSITIONS AND METHODS FOR DEEP DERMAL DRUG DELIVERY” (ARCUTIS BIOTHERAPEUTICS, INC., priority 2020, published 2023).
